According to PMC11568214, “The impact of 9-azaglycophymine and phenylguanidine derivatives on the proliferation of various breast cancer cell lines in vitro and in vivo” (Scientific Reports, 2024):

Assays:
[1] = test system: 4T1; test: Crystal violet (CV) cell viability assay, IC50 determination; type: cell-based; details: Mus musculus, 72 h treatment, mean ± SD
Procedure: (§1) For initial testing of the cytotoxic effect of the available glycophymine compounds (Table S2), cells were treated with compound in three concentrations: 1, 10 and 50 µM. Cells were seeded in 96-well plates and allowed to adhere overnight. Then they were treated for 72 h under standard culture conditions. […] For IC50 determination, the compounds were tested at seven concentrations (0.78, 1.56, 3.13, 6.25, 12.5, 25 and 50 µM). Subsequently, the cell viability was determined by using the crystal violet (CV) assay. Moreover, the selected compounds were tested against the mouse breast cancer cell line 4T1 (TNBC) as well. The compounds were prepared initially to obtain a stock solution of 20 mM in DMSO. Later, the working solutions were prepared by mixing the required amount of DMSO stock with the optimal medium for each cell line. The DMSO concentration in the final solution was always maintained lower than 0.5% to avoid any DMSO-derived side effects.
(§2) For CV assays, after 72 h treatment, the treatment medium was discarded from the 96-well plates, and the cells were washed using 50 µL of PBS. Cells were fixed by adding 50 µL of 4% (v/v) paraformaldehyde (PFA) in PBS for 15 min at room temperature (RT). Afterwards, PFA was discarded, and the plates were dried for 15 min at RT. 50 µL of CV working solution (0.1% w/v CV in PBS) were added to the wells, followed by 15 min incubation at RT. Subsequently, the CV solution was discarded, and the plates were washed using aqua bidest. (ddH2O) to remove any remaining CV solution. The plates were left to dry overnight at RT, and then 50 µL of 33% (v/v) acetic acid in ddH2O were added to each well. Finally, the absorbance was measured at 570 nm by using a SpectraMax M5 plate reader (Molecular Devices, California, USA) and at 670 nm as background wavelength. […] Additionally, gefitinib, an approved EGFR inhibitor of the quinazoline family, was tested as anti-proliferative positive control. The data represent the mean ± standard deviation derived from three independent biological replicates. Dose–response curves were generated by four-parametric non-linear regression analysis using the GraphPad Prism software (version: 10.1, San Diego, CA, USA). Based on that, IC50 values and standard deviations were calculated for each replicate individually.

[2] = test system: BT-474; test: as above; type: cell-based; details: Homo sapiens, 72 h treatment, mean ± SD
Procedure: as §1, §2

[3] = test system: HCC1937; test: as above; type: cell-based; details: Homo sapiens, 72 h treatment, mean ± SD
Procedure: as §1, §2

[4] = test system: MCF-7; test: as above; type: cell-based; details: Homo sapiens, MCF7, 72 h treatment, mean ± SD
Procedure: as §1, §2

[5] = test system: MDA-MB-468; test: as above; type: cell-based, human
Procedure: as §1, §2

[6] = test system: 4T1; test: ROS production, DHR staining, flow cytometry; type: cell-based, mouse; parameters: key: ↑: induction; ↓: inhibition; ↔: no effect; details: 4T1, IC50 for 72 h
Procedure: (§3) The cells were stained with CFSE (1 µM) in PBS containing 0.1% (v/v) FCS for 10 min. Afterwards, cells were washed with PBS, and then seeded with growth medium in 6-well plates. The plates were incubated for 24 h under standard culture conditions. […] Subsequently, the cells were detached using 0.5 mL of 0.05% (v/v) Trypsin–EDTA for 3 min at 37 °C. Then trypsin was deactivated by the addition of FCS-containing growth medium. The cell suspensions were collected, centrifuged for 3 min at 800 rpm, and the cell pellets were resuspended in fresh PBS. Finally, the samples were analyzed by using flow cytometry. For ROS production analyses, the procedure was performed exactly as described above for the cell division experiments, except that the CFSE staining solution was replaced by DHR staining solution resulting in 1 µM of DHR in PBS containing 0.1% (v/v) FCS[34],[35].

[7] = test system: HCC1937; test: NO production, DAF-FM staining, flow cytometry; type: cell-based, human; parameters: key: ↑: induction; ↓: inhibition; ↔: no effect; details: HCC1937, IC50 for 72 h
Procedure: (§4) Afterwards, the medium was discarded and the cells were stained with DAF-FM (5 µM) in RPMI1640 with 10% (v/v) FCS for 1 h at 37 °C. The stain was completed by additional incubation for 15 min with serum-free medium. The cells were then detached, re-suspended in PBS and analyzed by flow cytometry.

[8] = test system: MCF-7; test: NO production, DAF-FM staining, flow cytometry; type: cell-based, human; parameters: key: ↑: induction; ↓: inhibition; ↔: no effect; details: MCF-7, IC50 for 72 h
Procedure: as §4

[9] = test system: 4T1; test: Cell division analysis, CFSE staining, flow cytometry; type: cell-based, mouse; parameters: key: ↑: induction; ↓: inhibition; ↔: no effect; details: 4T1, IC50 for 72 h
Procedure: as §3, with “cytometry.” for “cytometry. For ROS production analyses, the procedure was performed exactly as described above for the cell division experiments, except that the CFSE staining solution was replaced by DHR staining solution resulting in 1 µM of DHR in PBS containing 0.1% (v/v) FCS[34],[35].”

O=c1[nH]c(Nc2ccc([N+](=O)[O-])cc2)nc2ccccc12 [Compound 19, 4′-nitro-9-aza-glycophymine]
IC50 [1]: 12.5 ± 3.7 µM | IC50 [2]: 4 ± 0.2 µM | IC50 [3]: 4.3 ± 0.1 µM | IC50 [4]: 5.5 ± 0.6 µM | toxicity against MDA-MB-468 in comparison to gefitinib ([5]; 72 h, Fig. S12): nearly three times higher toxicity | IC50 ([5]; Homo sapiens, MDA-MB-468, 72 h treatment, mean ± SD): 5.8 ± 0.3 µM | ROS [6]: ↔ | NO [7]: ↑ | NO [8]: ↑ | Proliferation [9]: ↓
